Assay results: patent US20180362485A1, “N-HYDROXYFORMAMIDE COMPOUNDS AND COMPOSITIONS COMPRISING THEM FOR USE AS BMP l, TLL1 AND/OR TLL2 INHIBITORS” (GlaxoSmithKline Intellectual Property (No. 2) Limited, priority 2015, published 2018)

Molecular target: T1, human TLL1 (Homo sapiens, UniProt O43897, I156V/N221S/V284A)
T1 construct: a natural variant of full length native human TLL1 (NM_012464.4); made in house
T1 sequence (O43897 148-1013 I156V/N221S/V284A): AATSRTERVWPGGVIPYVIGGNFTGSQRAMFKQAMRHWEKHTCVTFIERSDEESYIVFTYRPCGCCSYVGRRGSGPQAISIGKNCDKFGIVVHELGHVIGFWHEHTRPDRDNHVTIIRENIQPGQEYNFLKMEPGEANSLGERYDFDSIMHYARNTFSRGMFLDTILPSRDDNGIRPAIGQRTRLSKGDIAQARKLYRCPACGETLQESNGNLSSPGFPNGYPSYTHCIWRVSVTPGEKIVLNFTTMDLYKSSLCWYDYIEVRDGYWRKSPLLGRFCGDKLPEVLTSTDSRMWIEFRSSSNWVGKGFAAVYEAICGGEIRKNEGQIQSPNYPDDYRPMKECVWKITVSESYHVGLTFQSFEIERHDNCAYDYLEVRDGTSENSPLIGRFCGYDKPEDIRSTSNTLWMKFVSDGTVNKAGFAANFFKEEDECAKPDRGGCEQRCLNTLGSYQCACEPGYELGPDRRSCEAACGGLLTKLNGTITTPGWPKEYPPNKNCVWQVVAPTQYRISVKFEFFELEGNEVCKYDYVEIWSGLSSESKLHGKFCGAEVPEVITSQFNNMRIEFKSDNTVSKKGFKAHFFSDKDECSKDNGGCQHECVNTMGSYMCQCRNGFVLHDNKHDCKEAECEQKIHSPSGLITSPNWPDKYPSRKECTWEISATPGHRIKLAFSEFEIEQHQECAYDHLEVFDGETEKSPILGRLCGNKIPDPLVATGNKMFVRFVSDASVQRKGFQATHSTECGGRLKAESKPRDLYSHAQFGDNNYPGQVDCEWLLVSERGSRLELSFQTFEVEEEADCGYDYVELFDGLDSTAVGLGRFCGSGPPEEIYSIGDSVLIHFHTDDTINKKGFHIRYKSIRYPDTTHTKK
Test: Enzyme inhibition assay for human TLL1
Assay type: biochemical
Settings: 2 nM TLL1, 0.8 μM promyostatin peptide substrate; read-out: pIC50, TLL1 enzyme inhibition assay (converted)
Description: Buffer components are purchased from Sigma-Aldrich (St. Louis, Mo.) or an equivalent supplier. The promyostatin peptide substrate is custom synthesized by American Peptide Company (Sunnyvale, Calif.) using the myostatin protein sequence (Uniprot accession number 014793) surrounding the cleavage site reviewed in Hopkins, D. R., et al., 2007 Matrix Biology, 26, 508-523. The procollagen peptide substrate used in the high enzyme BMP1 cleavage assay is custom synthesized by 21st Century Biochemicals (Marlboro, Mass.) using the procollagen Iα protein sequence (Uniprot accession number P02452) surrounding the cleavage site reviewed in Hopkins, D. R., et al., 2007 Matrix Biology, 26, 508-523.
The DNA sequence encoding a natural variant of full length native human TLL1 (NM_012464.4) containing three amino acid substitutions I156V, N221S, V284A is amplified from human heart and brain cDNA and subcloned into the pCDN expression vector. The plasmid is electroporated into CHOE1A cells. […]
Inhibition of human TLL1 and TLL2 recombinant enzymes is measured in 10 ul endpoint assays in 384-well format using the same promyostatin peptide substrate employed in the above Enzyme Inhibition Assay for human BMP1. […] TLL1 and TLL2 reactions are quenched with 5 μl of 0.5 M EDTA and plates are read on a ViewLux (Perkin Elmer) multilabel plate reader using a 480 nm excitation filter and 540 nm emission filter. […]

CCCCC[C@@H](C(=O)NCNC(=O)c1ccc(-c2ccc(C(=O)O)cc2)o1)[C@@H](CC)N(O)C=O [WO2015/104684 Example 71, 4-(5-((((R)-2-((R)-1-(N-hydroxyformamido)propyl)heptanamido)methyl)carbamoyl)furan-2-yl)benzoic acid]
IC50: < 398 nM
